This passage reports EC50 results from US10294234B2, “HIV inhibitor compounds” (priority 2017, dated 2019).

The test system of this assay is HIV-1 (IIIB) in MT-4 cells. Description: MT-4 HIV assay. The assay is classed as cell-based. As to conditions: Human immunodeficiency virus 1, MT4, 120 h. The gist of the method:
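Antiviral activity was read by Cell Titer Glo after a 5-day, 37 °C culture of MT-4 cells pre-infected with a 1:250 dilution of HIV-1 (IIIB). Compounds were tested as threefold dilution series in complete RPMI. Controls were no drug, mock infection and 5 uM AZT.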

[1] abbreviates: HIV-1 (IIIB), MT-4 cells, 5 days, Cell Titer Glo, read-out: EC50.

Read-outs that look alike come from different tables or passages of the source.

A word on the EC50: it is the concentration that produces a half-maximal response. Compound `COC(=O)N[C@H](C(=O)N[C@@H](Cc1ccc(C#Cc2ccc(N3CC4CC(C3)CN(C3COC3)C4)nc2)cc1)[C@@H](O)CN(Cc1c(F)cc(-c2cnn(C(F)F)c2)cc1F)NC(=O)[C@@H](NC(=O)OC)C(C)(C)C(F)(F)F)C(C)(C)C(F)(F)F` [Example 65, Methyl ((5S,8S,9S,14S)-11-(4-(1-(difluoromethyl)-1H-pyrazol-4-yl)-2,6-difluorobenzyl)-16,16,16-trifluoro-9-hydroxy-15,15-dimethyl-8-(4-((6-(7-(oxetan-3-yl)-3,7-diazabicyclo[3.3.1]nonan-3-yl)pyridin-3-yl)ethynyl)benzyl)-3,6,13-trioxo-5-(1,1,1-trifluoro-2-methylpropan-2-yl)-2-oxa-4,7,11,12-tetraazahexadecan-14-yl)carbamate] displayed an EC50 of 7.7 nM.
Consider `COC(=O)N[C@H](C(=O)N[C@@H](Cc1ccc(C#Cc2ccc(N3CC4CCC(C3)N4C3COC3)nc2)cc1)[C@@H](O)CN(Cc1c(F)cc(-c2ccccn2)cc1F)NC(=O)[C@@H](NC(=O)OC)C(C)(C)C)C(C)(C)C` [Example 84, Methyl ((5S,8S,9S,14S)-5-(tert-butyl)-11-(2,6-difluoro-4-(pyridin-2-yl)benzyl)-9-hydroxy-15,15-dimethyl-8-(4-((6-(8-(oxetan-3-yl)-3,8-diazabicyclo[3.2.1]octan-3-yl)pyridin-3-yl)ethynyl)benzyl)-3,6,13-trioxo-2-oxa-4,7,11,12-tetraazahexadecan-14-yl)carbamate], for which, under setting [1], the concentration giving a half-maximal response (EC50) turned out to be 3.23 nM.
Still for that read-out and setting: in the case of `COC(=O)N[C@H](C(=O)NN(Cc1c(F)cc(-c2ccn(C(F)F)n2)cc1F)C[C@H](O)[C@H](Cc1ccc(C#Cc2ccc(N3CC4CC(C3)N4C3COC3)nc2)cc1)NC(=O)[C@@H](NC(=O)OC)C(C)(C)C(F)(F)F)C(C)(C)C` [Example 12, Methyl ((5S,8S,9S,14S)-11-(4-(1-(difluoromethyl)-1H-pyrazol-3-yl)-2,6-difluorobenzyl)-9-hydroxy-15,15-dimethyl-8-(4-((6-(6-(oxetan-3-yl)-3,6-diazabicyclo[3.1.1]heptan-3-yl)pyridin-3-yl)ethynyl)benzyl)-3,6,13-trioxo-5-(1,1,1-trifluoro-2-methylpropan-2-yl)-2-oxa-4,7,11,12-tetraazahexadecan-14-yl)carbamate] it was 3.11 nM.
Turning to `COC(=O)N[C@H](C(=O)N[C@@H](Cc1ccc(C#Cc2ccc(N3CC4CCC(C3)N4C3COC3)cc2)cc1)[C@@H](O)CN(Cc1c(F)cc(-c2ccccn2)cc1F)NC(=O)[C@@H](NC(=O)OC)C(C)(C)C(F)(F)F)C(C)(C)C(F)(F)F` [Example 177, Methyl ((5S,8S,9S,14S)-11-(2,6-difluoro-4-(pyridin-2-yl)benzyl)-16,16,16-trifluoro-9-hydroxy-15,15-dimethyl-8-(4-((4-(8-(oxetan-3-yl)-3,8-diazabicyclo [3.2.1]octan-3-yl)phenyl)ethynyl)benzyl)-3,6,13-trioxo-5-(1,1,1-trifluoro-2-methylpropan-2-yl)-2-oxa-4,7,11,12-tetraazahexadecan-14-yl)carbamate], the EC50 under setting [1] was determined as 8.12 nM.
For `COC(=O)N[C@H](C(=O)N[C@@H](Cc1ccc(C#Cc2ccc(N3CCN(C4CCOCC4)CC3)nc2)cc1)[C@@H](O)CN(Cc1c(F)cc(-c2ccn(C(F)F)n2)cc1F)NC(=O)[C@@H](NC(=O)OC)C(C)(C)C(F)(F)F)C(C)(C)C(F)(F)F` [Example 104, Methyl ((5S,8S,9S,14S)-11-(4-(1-(difluoromethyl)-1H-pyrazol-3-yl)-2,6-difluorobenzyl)-16,16,16-trifluoro-9-hydroxy-15,15-dimethyl-3,6,13-trioxo-8-(4-((6-(4-(tetrahydro-2H-pyran-4-yl)piperazin-1-yl)pyridin-3-yl)ethynyl)benzyl)-5-(1,1,1-trifluoro-2-methylpropan-2-yl)-2-oxa-4,7,11,12-tetraazahexadecan-14-yl)carbamate], the EC50 under setting [1] amounted to 4.97 nM.
On the same count and under the same terms, with `COC(=O)N[C@H](C(=O)NN(Cc1c(F)cc(-c2cnn(C(F)F)c2)cc1F)C[C@H](O)[C@H](Cc1ccc(C#Cc2ccc(N3CC4CCC(C3)N4C3COC3)nc2)cc1)NC(=O)[C@@H](NC(=O)OC)C(C)(C)C(F)(F)F)C(C)(C)CF` [Example 80, Methyl ((5S,8S,9S,14S)-11-(4-(1-(difluoromethyl)-1H-pyrazol-4-yl)-2,6-difluorobenzyl)-16-fluoro-9-hydroxy-15,15-dimethyl-8-(4-((6-(8-(oxetan-3-yl)-3,8-diazabicyclo [3.2.1]octan-3-yl)pyridin-3-yl)ethynyl)benzyl)-3,6,13-trioxo-5-(1,1,1-trifluoro-2-methylpropan-2-yl)-2-oxa-4,7,11,12-tetraazahexadecan-14-yl)carbamate] the figure was 3.13 nM; with `COC(=O)N[C@H](C(=O)N[C@@H](Cc1ccc(C#Cc2ccc(N3CC4CCC(C3)N4C3COC3)nc2)cc1)[C@@H](O)CN(Cc1ccc(-c2ccn(CC(F)F)n2)cc1)NC(=O)[C@@H](NC(=O)OC)C(C)(C)C(F)(F)F)C(C)(C)C(F)(F)F` [Example 3, Methyl ((5S,10S,11S,14S)-8-(4-(1-(2,2-difluoroethyl)-1H-pyrazol-3-yl)benzyl)-16,16,16-trifluoro-10-hydroxy-15,15-dimethyl-11-(4-((6-(8-(oxetan-3-yl)-3,8-diazabicyclo[3.2.1]octan-3-yl)pyridin-3-yl)ethynyl)benzyl)-3,6,13-trioxo-5-(1,1,1-trifluoro-2-methylpropan-2-yl)-2-oxa-4,7,8,12-tetraazahexadecan-14-yl)carbamate], 6.95 nM; with `COC(=O)N[C@H](C(=O)N[C@@H](Cc1ccc(C#Cc2cnc(N3CC4CCC(C3)N4C3COC3)c(C)c2)cc1)[C@@H](O)CN(Cc1c(F)cc(-c2ccn(C(F)F)n2)cc1F)NC(=O)[C@@H](NC(=O)OC)C(C)(C)C(F)(F)F)C(C)(C)C(F)(F)F` [Example 150, Methyl ((5S,8S,9S,14S)-11-(4-(1-(difluoromethyl)-1H-pyrazol-3-yl)-2,6-difluorobenzyl)-16,16,16-trifluoro-9-hydroxy-15,15-dimethyl-8-(4-((5-methyl-6-(8-(oxetan-3-yl)-3,8-diazabicyclo[3.2.1]octan-3-yl)pyridin-3-yl)ethynyl)benzyl)-3,6,13-trioxo-5-(1,1,1-trifluoro-2-methylpropan-2-yl)-2-oxa-4,7,11,12-tetraazahexadecan-14-yl)carbamate], 5.86 nM.
For `COC(=O)N[C@H](C(=O)N[C@@H](Cc1ccc(C#Cc2ccc(N3CC4CCC(C3)N4CC3CN(C(=O)OC(C)(C)C)C3)nc2)cc1)[C@@H](O)CN(Cc1c(F)cc(-c2cnn(C(F)F)c2)cc1F)NC(=O)[C@@H](NC(=O)OC)C(C)(C)C(F)(F)F)C(C)(C)C(F)(F)F` [Example 110, tert-butyl 3-((3-(5-((4-((2S,3S)-4-(1-(4-(1-(difluoromethyl)-1H-pyrazol-4-yl)-2,6-difluorobenzyl)-2-((S)-4,4,4-trifluoro-2-((methoxycarbonyl)amino)-3,3-dimethylbutanoyl)hydrazinyl)-3-hydroxy-2-((S)-4,4,4-trifluoro-2-((methoxycarbonyl)amino)-3,3-dimethylbutanamido)butyl)phenyl)ethynyl)pyridin-2-yl)-3,8-diazabicyclo[3.2.1]octan-8-yl)methyl)azetidine-1-carboxylate], the EC50 stood at 30.8 nM.
Take `COC(=O)N[C@H](C(=O)N[C@@H](Cc1ccc(C#Cc2ccc(N3CC4CCC(C3)N4CC3(C)COC3)nc2)cc1)[C@@H](O)CN(Cc1c(F)cc(-c2cnn(C(F)F)c2)cc1F)NC(=O)[C@@H](NC(=O)OC)C(C)(C)C(F)(F)F)C(C)(C)C(F)(F)F` [Example 108, Methyl ((5S,8S,9S,14S)-11-(4-(1-(difluoromethyl)-1H-pyrazol-4-yl)-2,6-difluorobenzyl)-16,16,16-trifluoro-9-hydroxy-15,15-dimethyl-8-(4-((6-(8-((3-methyloxetan-3-yl)methyl)-3,8-diazabicyclo[3.2.1]octan-3-yl)pyridin-3-yl)ethynyl)benzyl)-3,6,13-trioxo-5-(1,1,1-trifluoro-2-methylpropan-2-yl)-2-oxa-4,7,11,12-tetraazahexadecan-14-yl)carbamate]: under setting [1], the EC50 is 7.23 nM.
On the same count and under the same terms, in the case of `COC(=O)N[C@H](C(=O)N[C@@H](Cc1ccc(C#Cc2ccc(N3CC4CCC(C3)N4C3COC3)nc2)cc1)[C@@H](O)CN(Cc1ccc(-c2ccccn2)cc1F)NC(=O)[C@@H](NC(=O)OC)C(C)(C)C(F)(F)F)C(C)(C)C(F)(F)F` [Example 245, Methyl ((5S,8S,9S,14S)-16,16,16-trifluoro-11-(2-fluoro-4-(pyridin-2-yl)benzyl)-9-hydroxy-15,15-dimethyl-8-(4-((6-(8-(oxetan-3-yl)-3,8-diazabicyclo[3.2.1]octan-3-yl)pyridin-3-yl)ethynyl)benzyl)-3,6,13-trioxo-5-(1,1,1-trifluoro-2-methylpropan-2-yl)-2-oxa-4,7,11,12-tetraazahexadecan-14-yl)carbamate] it was 3.59 nM; in that of `COC(=O)N[C@H](C(=O)N[C@@H](Cc1ccc(C#Cc2ccc(N3CC4CCC(C3)N4[C@H]3CCOC3)nc2)cc1)[C@@H](O)CN(Cc1c(F)cc(-c2ccn(C(F)F)n2)cc1F)NC(=O)[C@@H](NC(=O)OC)C(C)(C)C(F)(F)F)C(C)(C)C(F)(F)F` [Example 142, Methyl ((5S,8S,9S,14S)-11-(4-(1-(difluoromethyl)-1H-pyrazol-3-yl)-2,6-difluorobenzyl)-16,16,16-trifluoro-9-hydroxy-15,15-dimethyl-3,6,13-trioxo-8-(4-((6-(8-((S)-tetrahydrofuran-3-yl)-3,8-diazabicyclo[3.2.1]octan-3-yl)pyridin-3-yl)ethynyl)benzyl)-5-(1,1,1-trifluoro-2-methylpropan-2-yl)-2-oxa-4,7,11,12-tetraazahexadecan-14-yl)carbamate], 8.78 nM.
